The values below are quoted from earlier work in patent US6852718B2, “Phenylsulphonylipiperazinyl derivatives as 5-HT receptor ligands” (Merck Sharp & Dohme Ltd, priority 2000, dated 2005).

The target in the data set is human dopamine D2 receptor (Homo sapiens, UniProt P14416).
Sequence of human dopamine D2 receptor (P14416 whole entry): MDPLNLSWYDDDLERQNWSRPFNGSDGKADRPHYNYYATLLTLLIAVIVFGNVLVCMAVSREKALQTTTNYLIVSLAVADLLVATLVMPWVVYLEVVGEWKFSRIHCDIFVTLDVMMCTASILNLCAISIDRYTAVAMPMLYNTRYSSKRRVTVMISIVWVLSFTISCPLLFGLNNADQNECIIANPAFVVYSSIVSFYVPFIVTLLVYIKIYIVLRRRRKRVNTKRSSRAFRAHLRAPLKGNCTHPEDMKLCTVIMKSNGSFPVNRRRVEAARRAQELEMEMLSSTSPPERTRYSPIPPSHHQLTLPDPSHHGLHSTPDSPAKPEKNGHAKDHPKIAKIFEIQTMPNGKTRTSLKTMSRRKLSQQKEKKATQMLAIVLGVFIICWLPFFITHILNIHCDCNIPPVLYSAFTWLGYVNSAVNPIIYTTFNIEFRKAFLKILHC

Take `COc1cccc(C(O)C2CCN(CCc3ccc(F)cc3)CC2)c1OC` (stereo not drawn) [MDL-100,907, (+)-α-(2,3-dimethoxyphenyl)-1-[2-(4-fluorophenyl)-ethyl]-4-piperidinemethanol]: the “activity at the human dopamine D2 receptor” value is “essentially devoid of activity”.
